Species on record: Rattus norvegicus
Assay type: toxicity, organism-based, Sprague-Dawley
Details: in vivo, po, route oral GAVAGE, […]; for ALANINE AMINOTRANSFERASE / ALBUMIN / ALKALINE PHOSPHATASE / ASPARTATE AMINOTRANSFERASE / BLOOD UREA NITROGEN / CARBON DIOXIDE / CHOLESTEROL / CREATINE PHOSPHOKINASE / CREATININE / LACTATE DEHYDROGENASE / POTASSIUM / TOTAL BILIRUBIN / TOTAL PROTEIN / PHOSPHORUS / GLUCOSE / LIPASE: tissue Plasma
[1] = 0 mg/kg, 6 h, vehicle control, tissue Blood, dose level Control, time 0.25 day
[2] = 0 mg/kg, 6 h, vehicle control, dose level Control, time 0.25 day
[3] = 0 mg/kg, 24 h, vehicle control, tissue Blood, dose level Control, time 1 day
[4] = 0 mg/kg, 24 h, vehicle control, dose level Control, time 1 day
[5] = 100 mg/kg, 6 h, tissue Blood, dose level M1, time 0.25 day
[6] = 100 mg/kg, 6 h, dose level M1, time 0.25 day
[7] = 100 mg/kg, 24 h, tissue Blood, dose level M1, time 1 day
[8] = 100 mg/kg, 24 h, dose level M1, time 1 day
[9] = 860 mg/kg, 6 h, tissue Blood, dose level High, time 0.25 day
[10] = 860 mg/kg, 6 h, dose level High, time 0.25 day
[11] = 860 mg/kg, 24 h, tissue Blood, dose level High, time 1 day
[12] = 860 mg/kg, 24 h, dose level High, time 1 day

Description: DrugMatrix - Regimen: Single

CC(C)OC(=O)C(C)(C)Oc1ccc(C(=O)c2ccc(Cl)cc2)cc1 [FENOFIBRATE]
ABSOLUTE EOSINOPHIL [1]: 0 CELLS/uL
ABSOLUTE LYMPHOCYTE [1]: 8631 CELLS/uL
ABSOLUTE MONOCYTE [1]: 171.17 CELLS/uL
ABSOLUTE SEGMENTED NEUTROPHIL [1]: 1214.5 CELLS/uL
BASOPHIL [1]: 0%
EOSINOPHIL [1]: 0%
ERYTHROCYTE COUNT [1]: 5.42 x10E6/uL
HEMATOCRIT [1]: 34.7%
HEMOGLOBIN [1]: 13.67 G/DL
LYMPHOCYTE [1]: 86.17%
MEAN CORPUSCULAR HEMOGLOBIN CONCENTRATION [1]: 39.42 G/DL
MEAN CORPUSCULAR VOLUME [1]: 64.12 fL
NEUTROPHIL [1]: 12.17%
NUCLEATED RED BLOOD CELLS [1]: 0 /100WBC
ALANINE AMINOTRANSFERASE [2]: 61 u/L
ALBUMIN [2]: 4.67 G/DL
ALKALINE PHOSPHATASE [2]: 312.5 u/L
ASPARTATE AMINOTRANSFERASE [2]: 117.5 u/L
BLOOD UREA NITROGEN [2]: 8.67 mg/dL
CARBON DIOXIDE [2]: 26.33 mmol/L
CHOLESTEROL [2]: 72 mg/dL
CREATINE PHOSPHOKINASE [2]: 283.33 u/L
CREATININE [2]: 0.28 mg/dL
LACTATE DEHYDROGENASE [2]: 95.33 u/L
POTASSIUM [2]: 5.75 MEQ/L
TOTAL BILIRUBIN [2]: 0.3 mg/dL
TOTAL PROTEIN [2]: 5.43 G/DL
ABSOLUTE EOSINOPHIL [3]: 90.83 CELLS/uL
ABSOLUTE LYMPHOCYTE [3]: 14725.17 CELLS/uL
ABSOLUTE MONOCYTE [3]: 220 CELLS/uL
ABSOLUTE SEGMENTED NEUTROPHIL [3]: 1080.67 CELLS/uL
BASOPHIL [3]: 0%
EOSINOPHIL [3]: 0.67%
ERYTHROCYTE COUNT [3]: 5.3 x10E6/uL
HEMATOCRIT [3]: 33.4%
HEMOGLOBIN [3]: 13.4 G/DL
LYMPHOCYTE [3]: 91.17%
MEAN CORPUSCULAR HEMOGLOBIN CONCENTRATION [3]: 40.12 G/DL
MEAN CORPUSCULAR VOLUME [3]: 63.05 fL
NEUTROPHIL [3]: 6.67%
NUCLEATED RED BLOOD CELLS [3]: 0 /100WBC
ALANINE AMINOTRANSFERASE [4]: 69 u/L
ALBUMIN [4]: 4.33 G/DL
ALKALINE PHOSPHATASE [4]: 269 u/L
ASPARTATE AMINOTRANSFERASE [4]: 83.67 u/L
BLOOD UREA NITROGEN [4]: 14 mg/dL
CARBON DIOXIDE [4]: 29 mmol/L
CHOLESTEROL [4]: 66.67 mg/dL
CREATINE PHOSPHOKINASE [4]: 355 u/L
CREATININE [4]: 0.18 mg/dL
LACTATE DEHYDROGENASE [4]: 123.33 u/L
PHOSPHORUS [4]: 8.83 mg/dL
POTASSIUM [4]: 6.06 MEQ/L
TOTAL BILIRUBIN [4]: 0.2 mg/dL
TOTAL PROTEIN [4]: 5.72 G/DL
ABSOLUTE EOSINOPHIL [5]: 0 CELLS/uL
ABSOLUTE LYMPHOCYTE [5]: 15645.5 CELLS/uL
ABSOLUTE MONOCYTE [5]: 363.5 CELLS/uL
ABSOLUTE SEGMENTED NEUTROPHIL [5]: 1824.33 CELLS/uL
BASOPHIL [5]: 0%
EOSINOPHIL [5]: 0%
ERYTHROCYTE COUNT [5]: 5.47 x10E6/uL
HEMATOCRIT [5]: 34.7%
HEMOGLOBIN [5]: 13.57 G/DL
LYMPHOCYTE [5]: 88%
MEAN CORPUSCULAR HEMOGLOBIN CONCENTRATION [5]: 39.12 G/DL
MEAN CORPUSCULAR VOLUME [5]: 63.42 fL
NUCLEATED RED BLOOD CELLS [5]: 0 /100WBC
ALANINE AMINOTRANSFERASE [6]: 47.67 u/L
ALBUMIN [6]: 4.43 G/DL
ALKALINE PHOSPHATASE [6]: 355.83 u/L
ASPARTATE AMINOTRANSFERASE [6]: 100.33 u/L
BLOOD UREA NITROGEN [6]: 8.17 mg/dL
CARBON DIOXIDE [6]: 21.33 mmol/L
CHOLESTEROL [6]: 77.33 mg/dL
CREATINE PHOSPHOKINASE [6]: 740.17 u/L
CREATININE [6]: 0.18 mg/dL
LACTATE DEHYDROGENASE [6]: 327.83 u/L
PHOSPHORUS [6]: 12.3 mg/dL
TOTAL BILIRUBIN [6]: 0.22 mg/dL
TOTAL PROTEIN [6]: 5.92 G/DL
ABSOLUTE EOSINOPHIL [7]: 24.83 CELLS/uL
ABSOLUTE LYMPHOCYTE [7]: 12569.67 CELLS/uL
ABSOLUTE MONOCYTE [7]: 401.83 CELLS/uL
ABSOLUTE SEGMENTED NEUTROPHIL [7]: 920.33 CELLS/uL
BASOPHIL [7]: 0%
EOSINOPHIL [7]: 0.17%
ERYTHROCYTE COUNT [7]: 4.96 x10E6/uL
HEMATOCRIT [7]: 32.78%
HEMOGLOBIN [7]: 13.08 G/DL
LYMPHOCYTE [7]: 90.5%
MEAN CORPUSCULAR HEMOGLOBIN [7]: 26.38 pg
MEAN CORPUSCULAR HEMOGLOBIN CONCENTRATION [7]: 39.95 G/DL
MEAN CORPUSCULAR VOLUME [7]: 66.03 fL
NEUTROPHIL [7]: 6.67%
NUCLEATED RED BLOOD CELLS [7]: 0.33 /100WBC
ALANINE AMINOTRANSFERASE [8]: 74.83 u/L
ALBUMIN [8]: 4.45 G/DL
ALKALINE PHOSPHATASE [8]: 321.17 u/L
ASPARTATE AMINOTRANSFERASE [8]: 86.17 u/L
BLOOD UREA NITROGEN [8]: 13 mg/dL
CARBON DIOXIDE [8]: 30.83 mmol/L
CHOLESTEROL [8]: 42.83 mg/dL
CREATINE PHOSPHOKINASE [8]: 282.83 u/L
CREATININE [8]: 0.19 mg/dL
GLUCOSE [8]: 147.17 mg/dL
LIPASE [8]: 9.17 u/L
TOTAL BILIRUBIN [8]: 0.15 mg/dL
TOTAL PROTEIN [8]: 5.55 G/DL
ABSOLUTE EOSINOPHIL [9]: 0 CELLS/uL
ABSOLUTE LYMPHOCYTE [9]: 9866.33 CELLS/uL
ABSOLUTE MONOCYTE [9]: 201 CELLS/uL
ABSOLUTE SEGMENTED NEUTROPHIL [9]: 1482.67 CELLS/uL
BASOPHIL [9]: 0%
EOSINOPHIL [9]: 0%
ERYTHROCYTE COUNT [9]: 5.53 x10E6/uL
HEMATOCRIT [9]: 35.82%
HEMOGLOBIN [9]: 14.02 G/DL
LYMPHOCYTE [9]: 85%
MEAN CORPUSCULAR HEMOGLOBIN CONCENTRATION [9]: 39.15 G/DL
MEAN CORPUSCULAR VOLUME [9]: 64.97 fL
NEUTROPHIL [9]: 13.17%
NUCLEATED RED BLOOD CELLS [9]: 0 /100WBC
ALANINE AMINOTRANSFERASE [10]: 53.5 u/L
ALBUMIN [10]: 4.48 G/DL
ALKALINE PHOSPHATASE [10]: 282.5 u/L
ASPARTATE AMINOTRANSFERASE [10]: 93.33 u/L
BLOOD UREA NITROGEN [10]: 9 mg/dL
CARBON DIOXIDE [10]: 26 mmol/L
CHOLESTEROL [10]: 64 mg/dL
CREATINE PHOSPHOKINASE [10]: 406.33 u/L
CREATININE [10]: 0.16 mg/dL
LACTATE DEHYDROGENASE [10]: 198.83 u/L
TOTAL BILIRUBIN [10]: 0.2 mg/dL
TOTAL PROTEIN [10]: 6.02 G/DL
ABSOLUTE EOSINOPHIL [11]: 43 CELLS/uL
ABSOLUTE LYMPHOCYTE [11]: 12968.67 CELLS/uL
ABSOLUTE MONOCYTE [11]: 388.33 CELLS/uL
ABSOLUTE SEGMENTED NEUTROPHIL [11]: 1900 CELLS/uL
BASOPHIL [11]: 0%
EOSINOPHIL [11]: 0.33%
ERYTHROCYTE COUNT [11]: 5.77 x10E6/uL
HEMATOCRIT [11]: 35.63%
HEMOGLOBIN [11]: 14.08 G/DL
LYMPHOCYTE [11]: 85.17%
MEAN CORPUSCULAR HEMOGLOBIN CONCENTRATION [11]: 39.53 G/DL
MEAN CORPUSCULAR VOLUME [11]: 61.83 fL
NEUTROPHIL [11]: 12%
NUCLEATED RED BLOOD CELLS [11]: 0 /100WBC
ALANINE AMINOTRANSFERASE [12]: 115.33 u/L
ALBUMIN [12]: 4.42 G/DL
ALKALINE PHOSPHATASE [12]: 359 u/L
ASPARTATE AMINOTRANSFERASE [12]: 123.33 u/L
BLOOD UREA NITROGEN [12]: 10.33 mg/dL
CARBON DIOXIDE [12]: 27.83 mmol/L
CHOLESTEROL [12]: 51.5 mg/dL
CREATINE PHOSPHOKINASE [12]: 497 u/L
CREATININE [12]: 0.24 mg/dL
GLUCOSE [12]: 134.17 mg/dL
LACTATE DEHYDROGENASE [12]: 204.83 u/L
LIPASE [12]: 9 u/L
POTASSIUM [12]: 5.95 MEQ/L
TOTAL BILIRUBIN [12]: 0.22 mg/dL
TOTAL PROTEIN [12]: 5.72 G/DL

Source: ChEMBL document CHEMBL3885881, “DrugMatrix”
